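In this assay, cells in 96-well plates receive the compound at five concentrations for 48 hours. Endpoints are linearly interpolated between the surrounding concentrations. Abbreviation: GI50, concentration required for 50% inhibition of growth.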 The source made the active and inactive calls. Cut-off read from the data, not from the text of the source: active = GI50 up to about 1.1 µM and inactive = higher. Where only a bound is given, the exact number is not on record here.

Test systems include A498; EKVX; HCT-116; HCT-15; HOP-62; IGROV-1; K562; KM12; MDA-MB-231; OVCAR-5; RPMI-8226; RXF 393; SF-268; SF-539; SN12C; SNB-19; SR; SW-620; T47D; UACC-257.
Test in all cases: NCI-60 cell line screen, 48 h

On to `Clc1ccc(C2c3ccccc3-c3nc4ccccc4n32)cc1` (configuration not stated), for which the GI50 in the assay on A498 is 25.1 µM (inactive); in the assay on EKVX, 16.5 µM (inactive); in the assay on HCT-116, 5.09 µM (inactive); with HCT-15 it was 17.3 µM; in the assay on HOP-62, 16.9 µM (inactive); in the assay with IGROV-1, 12.6 µM (inactive). Besides, the GI50 in the assay on K562 is > 22.4 µM (inactive); in the assay on KM12, 13 µM (inactive); with MDA-MB-231 it was > 84.1 µM (inactive); in the assay on OVCAR-5 it was 25.4 µM (inactive); in the assay on RPMI-8226, 9.75 µM (inactive); in the assay with RXF 393 it was 5.26 µM (inactive). The GI50 is 25 µM (inactive) in the assay with SF-268; > 54.7 µM (inactive) in the assay with SF-539; 42.1 µM (inactive) in the assay on SN12C; 31.7 µM (inactive) with SNB-19; 8.99 µM (inactive) with SR; 44.8 µM (inactive) in the assay on SW-620. Besides, the GI50 with T47D is > 27.2 µM (inactive); in the assay with UACC-257, 53.7 µM (inactive).
As to `Fc1ccc(/C=C2\COCC3=C2NC(=S)NC3c2ccc(F)cc2)cc1` (configuration not stated), the GI50 is 16 µM (inactive) in the assay with A498; 20 µM (inactive) in the assay with EKVX; 17.3 µM (inactive) with HCT-116; 15.7 µM in the assay with HCT-15; 17.6 µM (inactive) with HOP-62; 24.9 µM (inactive) in the assay with IGROV-1. For the same compound, the GI50 is 19 µM (inactive) with K562; 24.4 µM (inactive) with KM12; 18.5 µM (inactive) in the assay on MDA-MB-231; 21.1 µM (inactive) in the assay with OVCAR-5; 16.5 µM (inactive) in the assay with RPMI-8226; 16.6 µM (inactive) in the assay on RXF 393. Further, the GI50 in the assay on SF-268 is 17.7 µM (inactive); in the assay on SF-539, 20 µM (inactive); in the assay on SN12C it was 18.5 µM (inactive); in the assay on SNB-19, 23.6 µM (inactive); with SR, 19 µM (inactive); in the assay on SW-620, 19.7 µM (inactive). For the same compound, the GI50 in the assay on T47D was 26.1 µM (inactive); with UACC-257 it was 18.7 µM (inactive).
On to `ClC(Cl)=C1C(=C(Cl)Cl)C(Cl)(Cl)C1(Cl)Cl`, for which the GI50 in the assay on A498 is 11.6 µM (inactive); in the assay on EKVX, 7.52 µM (inactive); with HCT-116 it was 1.36 µM (inactive); in the assay on HCT-15, 1.14 µM; in the assay with HOP-62, 8.18 µM (inactive); in the assay with IGROV-1 it was 5.55 µM (inactive). The GI50 in the assay with K562 was 0.443 µM (active); with KM12, 4.9 µM (inactive); in the assay on MDA-MB-231, 2.4 µM (inactive); with OVCAR-5, 2.64 µM (inactive); with RPMI-8226, 0.558 µM (active); in the assay on RXF 393, 1.45 µM (inactive). Further, the GI50 is 2.21 µM (inactive) in the assay with SF-268; 2.34 µM (inactive) in the assay with SF-539; 12.5 µM (inactive) in the assay on SNB-19; 0.214 µM (active) with SR; 1.18 µM (inactive) with SW-620; 4.92 µM (inactive) in the assay with T47D. Further, the GI50 in the assay on UACC-257 is 3.51 µM (inactive).
For the compound `COc1ccc(/C=C(\C(=O)OCC(C)C)c2ccc(OC)c(OC)c2)cc1OC`, the GI50 in the assay with A498 is > 100 µM (inactive); with EKVX, > 100 µM (inactive); in the assay with HCT-116, > 100 µM (inactive); in the assay with HCT-15 it was greater than 100 µM; in the assay on HOP-62 it was 74 µM (inactive); with IGROV-1, > 100 µM (inactive). Also, the GI50 with K562 is > 100 µM (inactive); in the assay with KM12 it was > 10 µM (inactive); with MDA-MB-231 it was 31 µM (inactive); in the assay with OVCAR-5, > 100 µM (inactive); in the assay on RPMI-8226 it was > 100 µM (inactive); in the assay on RXF 393 it was > 100 µM (inactive). In addition, the GI50 with SF-268, with SF-539, with SN12C, in the assay with SNB-19, in the assay with SR and with SW-620 was > 100 µM (inactive) in each case. Further, the GI50 with T47D and in the assay with UACC-257 was > 100 µM (inactive) in each case.
Turning to `O=C(Nc1ccccc1)c1cc2c(cc1Cl)Sc1nccn1S2(=O)=O`, the GI50 with A498 is 18.5 µM (inactive); with EKVX, 24.2 µM (inactive); with HCT-116, 12.1 µM (inactive); with HCT-15, 19.1 µM; with HOP-62 it was 16 µM (inactive); with IGROV-1, 20.2 µM (inactive). For the same compound, the GI50 with K562 is 28.2 µM (inactive); with KM12 it was 18.6 µM (inactive); in the assay on MDA-MB-231 it was 27 µM (inactive); in the assay with OVCAR-5, 27.2 µM (inactive); with RPMI-8226, 19.8 µM (inactive); in the assay on RXF 393, 17.7 µM (inactive). The GI50 with SF-268 was 25.2 µM (inactive); in the assay on SF-539, 23 µM (inactive); with SN12C it was 46.1 µM (inactive); with SNB-19, > 100 µM (inactive); in the assay on SR, 14.8 µM (inactive); in the assay on SW-620, 21.1 µM (inactive). Also, the figures for the GI50 in the assay with T47D and in the assay with UACC-257 were 19.1 µM (inactive) and 18.7 µM (inactive), respectively.
Turning to `COc1ccc(/C=C(\Cl)c2ccc(OC)c(OC)c2)cc1OC`, the GI50 in the assay with A498 is > 43.5 µM (inactive); in the assay with EKVX it was > 100 µM (inactive); in the assay on HCT-116, > 100 µM (inactive); in the assay with HCT-15, greater than 100 µM; with HOP-62 it was > 82.8 µM (inactive); in the assay on IGROV-1, > 100 µM (inactive). Further, the GI50 in the assay with K562 is > 100 µM (inactive); in the assay with KM12 it was > 100 µM (inactive); in the assay on MDA-MB-231, > 100 µM (inactive); in the assay with OVCAR-5 it was > 100 µM (inactive); in the assay on RPMI-8226 it was > 100 µM (inactive); with RXF 393, > 90.4 µM (inactive). The GI50 with SF-268, in the assay on SF-539, in the assay on SN12C, in the assay on SNB-19, in the assay with SR and with SW-620 was > 100 µM (inactive) each time. Also, the GI50 in the assay with T47D and in the assay on UACC-257 was > 100 µM (inactive) in each case.
As to `CCOC(=O)c1nc2cc(C(F)(F)F)ccc2nc1Nc1cc(OC)c(OC)c(OC)c1`, the GI50 was > 100 µM (inactive) in the assay with A498; > 100 µM (inactive) in the assay with EKVX; > 100 µM (inactive) in the assay with HCT-116; greater than 100 µM with HCT-15; > 100 µM (inactive) in the assay on HOP-62; > 100 µM (inactive) in the assay on IGROV-1. Also, the GI50 with K562, in the assay with KM12, with MDA-MB-231, in the assay with OVCAR-5, in the assay on RPMI-8226 and with RXF 393 was > 100 µM (inactive) in each case. Besides, the GI50 in the assay with SF-268, in the assay with SF-539, with SN12C, in the assay with SNB-19, in the assay with SR and with SW-620 was > 100 µM (inactive) throughout. Also, the GI50 with T47D and with UACC-257 was > 100 µM (inactive) each time.
For the compound `CSc1nc(NC2OCC(OC(C)=O)C(OC(C)=O)C2OC(C)=O)c(/N=C\C=N\c2c(NC3OCC(OC(C)=O)C(OC(C)=O)C3OC(C)=O)nc(SC)[nH]c2=O)c(=O)[nH]1` (configuration not stated), the GI50 with A498 was > 100 µM (inactive); in the assay with EKVX, > 86.9 µM (inactive); in the assay with HCT-116, > 80.2 µM (inactive); in the assay on HCT-15, greater than 100 µM; in the assay on HOP-62 it was 30.5 µM (inactive); with IGROV-1, > 93.1 µM (inactive). In addition, the GI50 in the assay on K562 was > 100 µM (inactive); in the assay on KM12, > 100 µM (inactive); in the assay on MDA-MB-231, > 100 µM (inactive); in the assay with OVCAR-5, > 71.8 µM (inactive); in the assay with RPMI-8226, > 100 µM (inactive); in the assay on RXF 393, 22.8 µM (inactive). Also, the GI50 is > 100 µM (inactive) with SF-268; 43.7 µM (inactive) in the assay on SF-539; > 100 µM (inactive) in the assay on SN12C; 46.3 µM (inactive) in the assay with SNB-19; > 100 µM (inactive) in the assay on SR; > 100 µM (inactive) in the assay with SW-620. For the same compound, the GI50 was 89.7 µM (inactive) in the assay with T47D and > 100 µM (inactive) with UACC-257.
Regarding `CC(=O)OCC1OC(n2c(-c3ccc(C)cc3)cc(-c3ccccc3)c(C#N)c2=S)C(OC(C)=O)C(OC(C)=O)C1OC(C)=O` (configuration not stated), the GI50 is 31 µM (inactive) in the assay with A498; > 100 µM (inactive) in the assay with EKVX; > 100 µM (inactive) in the assay with HCT-116; greater than 100 µM in the assay on HCT-15; > 100 µM (inactive) in the assay on HOP-62; > 100 µM (inactive) in the assay on IGROV-1. Also, the GI50 in the assay with K562, in the assay with KM12, in the assay with MDA-MB-231, with OVCAR-5, in the assay with RPMI-8226 and in the assay on RXF 393 was > 100 µM (inactive) in each case. Further, the GI50 with SF-268, with SF-539, in the assay with SN12C, in the assay with SNB-19, in the assay with SR and with SW-620 was > 100 µM (inactive) each time. In addition, in the assay with T47D, the GI50 is > 100 µM (inactive).
As for `O=C(Nc1nnc(-c2ccccc2)o1)C(SC(=S)N1CCOCC1)c1ccccc1` (configuration not stated), the GI50 in the assay with A498 is 23.8 µM (inactive); in the assay with EKVX it was 15.3 µM (inactive); in the assay on HCT-116, 22.5 µM (inactive); with HCT-15, 5.43 µM; in the assay on HOP-62 it was 24.1 µM (inactive); in the assay with IGROV-1 it was 35.7 µM (inactive). Besides, the GI50 in the assay with K562 was 19.5 µM (inactive); with KM12 it was 34.3 µM (inactive); in the assay on MDA-MB-231 it was 42 µM (inactive); in the assay with OVCAR-5, 25.6 µM (inactive); in the assay with RPMI-8226, 22.6 µM (inactive); in the assay with RXF 393, 41.9 µM (inactive). Besides, the GI50 with SF-539 was 33.3 µM (inactive); in the assay with SN12C, 12.6 µM (inactive); in the assay on SNB-19, 40.1 µM (inactive); in the assay on SR it was 9.75 µM (inactive); in the assay with SW-620, 42.5 µM (inactive); in the assay with T47D, 39.8 µM (inactive). For the same compound, the GI50 with UACC-257 is 35.6 µM (inactive).

These data come from ChEMBL document CHEMBL1201862, “PubChem BioAssay data set” (2004).
